Measurements as given in ChEMBL document CHEMBL5236617, “Rapid Evolution of a Fragment-like Molecule to Pan-Metallo-Beta-Lactamase Inhibitors: Initial Leads toward Clinical Candidates” (J Med Chem, 2022).
“And” between values parts separate entries of the source, which are not always exact repeats. Identical values can stand only once. The source made the active and inactive calls. No cut-off for these calls is given here.

Legend:
[1] = Inhibition of GST-tagged bacterial beta-lactamase VIM-1 expressed in Escherichia coli BL21(DE3) using CCF2-FA as substrate by fluorescence assay; design: species or system Bacteria
[2] = test system: Klebsiella pneumoniae; assay: Potentiation of imipenem-induced antibacterial activity against VIM-1 expressing Klebsiella pneumoniae assessed as imipenem MIC incubated for 22 to 24 hrs (reference value: 16 ug/ml); type: functional; details: time 22-24 hrs
[3] = Inhibition of GST-tagged bacterial beta-lactamase […] expressed in Escherichia coli BL21(DE3) using CCF2-FA as substrate by fluorescence assay; design: species or system Bacteria
[4] = Inhibition of GST-tagged bacterial beta-lactamase IMP-1 expressed in Escherichia coli BL21(DE3) using CCF2-FA as substrate by fluorescence assay; design: species or system Bacteria
[5] = test system: Escherichia coli; assay: Potentiation of imipenem-induced antibacterial activity against NDM-1 expressing Escherichia coli assessed as imipenem MIC incubated for 22 to 24 hrs (reference value: 32 ug/ml); type: functional; details: time 22-24 hrs
[6] = test system: Serratia marcescens; assay: Potentiation of imipenem-induced antibacterial activity against IMP-1 expressing Serratia marcescens assessed as imipenem MIC incubated for 22 to 24 hrs (reference value: 16 ug/ml); type: functional; details: time 22-24 hrs
[7] = test system: Klebsiella pneumoniae; assay: Antibacterial activity against Klebsiella pneumoniae MB9249 expressing IMP-26 infected in cyclophosphamide treated DBA/2 mouse assessed as reduction in bacterial burden in kidney at 5 mg/kg, sc administered three times for 1 day and measured after 24 hrs post injection; type: functional, organism-based
[8] = test system: Klebsiella pneumoniae; assay: Antibacterial activity against Klebsiella pneumoniae MB9249 expressing IMP-26 infected in cyclophosphamide treated DBA/2 mouse assessed as reduction in bacterial burden in spleen at 5 mg/kg, sc administered three times for 1 day and measured after 24 hrs post injection; type: functional, organism-based
[9] = test system: Klebsiella pneumoniae; assay: Antibacterial activity against Klebsiella pneumoniae MB9249 expressing IMP-26 infected in cyclophosphamide treated DBA/2 mouse assessed as reduction in bacterial burden in kidney at 10 to 50 mg/kg, sc administered three times for 1 day and measured after 24 hrs post injection in presence of imipenem; type: functional, organism-based; details: dose 10-50 mg/kg
[10] = Inhibition of Cav1.5 (unknown origin); design: species or system Homo sapiens
[11] = test system: Klebsiella pneumoniae; assay: Antibacterial activity against Klebsiella pneumoniae MB9249 expressing IMP-26 infected in cyclophosphamide treated DBA/2 mouse assessed as reduction in bacterial burden in spleen at 10 to 50 mg/kg, sc administered three times for 1 day and measured after 24 hrs post injection; type: functional, organism-based; details: dose 10-50 mg/kg
[12] = test system: Klebsiella pneumoniae; assay: Antibacterial activity against Klebsiella pneumoniae MB9249 expressing IMP-26 infected in cyclophosphamide treated DBA/2 mouse assessed as reduction in bacterial burden in spleen at 10 to 50 mg/kg, sc administered three times for 1 day and measured after 24 hrs post injection in presence of imipenem; type: functional, organism-based; details: dose 10-50 mg/kg
[13] = test system: Klebsiella pneumoniae; assay: Antibacterial activity against Klebsiella pneumoniae MB9249 expressing IMP-26 infected in cyclophosphamide treated DBA/2 mouse assessed as reduction in bacterial burden in kidney at 10 to 50 mg/kg, sc administered three times for 1 day and measured after 24 hrs post injection; type: functional, organism-based; details: dose 10-50 mg/kg
[14] = target: CYP3A4 (Homo sapiens, UniProt P08684); assay: in vitro
Sequence of CYP3A4 (P08684 whole entry): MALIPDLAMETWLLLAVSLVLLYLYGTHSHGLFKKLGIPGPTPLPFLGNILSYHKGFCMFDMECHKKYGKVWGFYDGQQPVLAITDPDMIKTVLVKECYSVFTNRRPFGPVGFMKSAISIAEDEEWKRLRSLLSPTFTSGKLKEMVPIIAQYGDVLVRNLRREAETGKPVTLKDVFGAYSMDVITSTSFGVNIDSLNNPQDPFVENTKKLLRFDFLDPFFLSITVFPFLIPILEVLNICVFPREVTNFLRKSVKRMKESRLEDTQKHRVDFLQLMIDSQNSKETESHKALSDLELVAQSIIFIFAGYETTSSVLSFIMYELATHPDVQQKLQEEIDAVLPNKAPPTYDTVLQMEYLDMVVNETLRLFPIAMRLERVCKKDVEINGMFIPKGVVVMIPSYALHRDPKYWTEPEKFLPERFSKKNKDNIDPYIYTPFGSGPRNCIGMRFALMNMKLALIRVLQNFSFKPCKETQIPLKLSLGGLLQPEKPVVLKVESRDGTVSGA
Description: Selectivity ratio of time dependent inhibition of CYP3A4 (unknown origin) in presence of NADPH to time dependent inhibition of CYP3A4 (unknown origin) in absence of NADPH

[15] = MRT in mouse at 5 mg/kg, iv; type: ADME, organism-based; details: in vivo
[16] = AUC in mouse at 5 mg/kg, iv; type: ADME, organism-based; design: dose 5 mg/kg, route iv; details: in vivo
[17] = target: T1, PXR (NR1I2) (Homo sapiens, UniProt O75469); assay: Inhibition of human PXR at 30 uM relative to control
T1 sequence (O75469 whole entry): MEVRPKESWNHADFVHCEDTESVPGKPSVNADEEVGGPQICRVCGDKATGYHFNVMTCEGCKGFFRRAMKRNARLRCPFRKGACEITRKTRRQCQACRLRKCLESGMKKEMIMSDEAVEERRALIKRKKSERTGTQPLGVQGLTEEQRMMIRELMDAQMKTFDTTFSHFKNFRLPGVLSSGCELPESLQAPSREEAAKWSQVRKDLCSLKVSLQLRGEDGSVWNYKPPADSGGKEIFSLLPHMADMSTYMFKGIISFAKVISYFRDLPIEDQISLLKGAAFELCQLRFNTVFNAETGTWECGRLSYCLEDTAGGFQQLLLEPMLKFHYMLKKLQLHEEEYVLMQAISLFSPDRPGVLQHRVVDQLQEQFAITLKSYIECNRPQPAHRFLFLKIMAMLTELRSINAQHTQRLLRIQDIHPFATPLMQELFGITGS

[18] = Cmax in mouse at 10 mg/kg, sc; type: ADME, organism-based; design: dose 10 mg/kg, route sc; details: in vivo
[19] = target: Cytochrome P450 3A4 (Homo sapiens, UniProt P08684); assay: Reversible inhibition of CYP3A4 (unknown origin); type: ADME
Sequence of Cytochrome P450 3A4 (P08684 whole entry): as the sequence (P08684 whole entry) above

[20] = Clearance in mouse at 5 mg/kg, iv; type: ADME, organism-based; details: in vivo
[21] = target: Cytochrome P450 2D6 (Homo sapiens, UniProt P10635); assay: Reversible inhibition of CYP2D6 (unknown origin); type: ADME
Sequence of Cytochrome P450 2D6 (P10635 whole entry): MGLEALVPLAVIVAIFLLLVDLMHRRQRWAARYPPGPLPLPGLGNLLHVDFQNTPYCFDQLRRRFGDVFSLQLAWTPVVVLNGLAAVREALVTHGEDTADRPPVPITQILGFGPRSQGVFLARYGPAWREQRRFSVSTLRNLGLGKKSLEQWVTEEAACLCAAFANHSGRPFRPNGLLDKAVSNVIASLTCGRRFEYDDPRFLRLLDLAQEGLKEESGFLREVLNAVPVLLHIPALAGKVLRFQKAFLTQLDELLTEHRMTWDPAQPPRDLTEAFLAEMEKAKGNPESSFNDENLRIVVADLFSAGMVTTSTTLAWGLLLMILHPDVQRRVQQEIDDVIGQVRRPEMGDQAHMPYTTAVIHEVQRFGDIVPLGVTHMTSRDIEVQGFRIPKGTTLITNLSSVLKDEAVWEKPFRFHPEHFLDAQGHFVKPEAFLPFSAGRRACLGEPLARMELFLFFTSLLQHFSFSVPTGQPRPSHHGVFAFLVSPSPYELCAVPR

[22] = Tmax in mouse at 50 mg/kg, sc; type: ADME, organism-based; details: in vivo
[23] = target: Voltage-gated inwardly rectifying potassium channel KCNH2 (Homo sapiens, UniProt Q12809); assay: Displacement of MK499 from human ERG
Sequence of Voltage-gated inwardly rectifying potassium channel KCNH2 (Q12809 whole entry): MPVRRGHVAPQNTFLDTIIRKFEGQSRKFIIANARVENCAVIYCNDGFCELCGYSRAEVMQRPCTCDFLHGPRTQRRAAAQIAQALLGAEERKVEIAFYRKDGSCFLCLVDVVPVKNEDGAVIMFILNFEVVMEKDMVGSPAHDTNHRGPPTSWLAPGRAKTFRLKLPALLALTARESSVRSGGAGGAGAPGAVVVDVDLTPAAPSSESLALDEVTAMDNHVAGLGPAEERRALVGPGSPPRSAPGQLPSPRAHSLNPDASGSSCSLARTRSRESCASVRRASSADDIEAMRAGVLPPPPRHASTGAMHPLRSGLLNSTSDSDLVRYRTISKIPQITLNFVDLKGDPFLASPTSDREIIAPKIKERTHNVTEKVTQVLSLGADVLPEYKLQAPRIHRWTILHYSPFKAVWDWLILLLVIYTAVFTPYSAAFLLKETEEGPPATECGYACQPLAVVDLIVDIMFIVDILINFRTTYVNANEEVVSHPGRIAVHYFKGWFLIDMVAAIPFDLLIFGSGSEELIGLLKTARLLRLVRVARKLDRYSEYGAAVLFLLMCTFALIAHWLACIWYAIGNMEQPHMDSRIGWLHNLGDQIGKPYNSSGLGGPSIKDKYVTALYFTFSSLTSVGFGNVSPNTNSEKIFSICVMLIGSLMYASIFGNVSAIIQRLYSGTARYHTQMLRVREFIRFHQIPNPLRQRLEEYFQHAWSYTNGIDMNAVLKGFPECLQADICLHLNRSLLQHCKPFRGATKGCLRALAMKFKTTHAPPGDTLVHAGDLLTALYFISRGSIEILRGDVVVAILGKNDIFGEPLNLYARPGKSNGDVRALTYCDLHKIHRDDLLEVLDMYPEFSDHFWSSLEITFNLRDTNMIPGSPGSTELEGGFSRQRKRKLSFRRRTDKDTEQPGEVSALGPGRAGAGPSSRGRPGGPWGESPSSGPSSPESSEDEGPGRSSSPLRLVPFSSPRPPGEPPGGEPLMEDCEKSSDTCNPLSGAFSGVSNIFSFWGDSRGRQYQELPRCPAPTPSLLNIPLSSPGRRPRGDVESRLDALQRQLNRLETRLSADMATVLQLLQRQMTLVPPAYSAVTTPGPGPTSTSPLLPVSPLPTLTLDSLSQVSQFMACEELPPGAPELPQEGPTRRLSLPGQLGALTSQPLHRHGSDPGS

[24] = AUC in mouse at 50 mg/kg, sc; type: ADME, organism-based; design: dose 50 mg/kg, route sc; details: in vivo
[25] = AUC in mouse at 10 mg/kg, sc; type: ADME, organism-based; design: dose 10 mg/kg, route sc; details: in vivo
[26] = Tmax in mouse at 10 mg/kg, sc; type: ADME, organism-based; details: in vivo
[27] = Cmax in mouse at 50 mg/kg, sc; type: ADME, organism-based; design: dose 50 mg/kg, route sc; details: in vivo
[28] = target: Sodium channel protein type 5 subunit alpha (Homo sapiens, UniProt Q14524); assay: Inhibition of Nav1.5 (unknown origin)
Sequence of Sodium channel protein type 5 subunit alpha (Q14524 whole entry): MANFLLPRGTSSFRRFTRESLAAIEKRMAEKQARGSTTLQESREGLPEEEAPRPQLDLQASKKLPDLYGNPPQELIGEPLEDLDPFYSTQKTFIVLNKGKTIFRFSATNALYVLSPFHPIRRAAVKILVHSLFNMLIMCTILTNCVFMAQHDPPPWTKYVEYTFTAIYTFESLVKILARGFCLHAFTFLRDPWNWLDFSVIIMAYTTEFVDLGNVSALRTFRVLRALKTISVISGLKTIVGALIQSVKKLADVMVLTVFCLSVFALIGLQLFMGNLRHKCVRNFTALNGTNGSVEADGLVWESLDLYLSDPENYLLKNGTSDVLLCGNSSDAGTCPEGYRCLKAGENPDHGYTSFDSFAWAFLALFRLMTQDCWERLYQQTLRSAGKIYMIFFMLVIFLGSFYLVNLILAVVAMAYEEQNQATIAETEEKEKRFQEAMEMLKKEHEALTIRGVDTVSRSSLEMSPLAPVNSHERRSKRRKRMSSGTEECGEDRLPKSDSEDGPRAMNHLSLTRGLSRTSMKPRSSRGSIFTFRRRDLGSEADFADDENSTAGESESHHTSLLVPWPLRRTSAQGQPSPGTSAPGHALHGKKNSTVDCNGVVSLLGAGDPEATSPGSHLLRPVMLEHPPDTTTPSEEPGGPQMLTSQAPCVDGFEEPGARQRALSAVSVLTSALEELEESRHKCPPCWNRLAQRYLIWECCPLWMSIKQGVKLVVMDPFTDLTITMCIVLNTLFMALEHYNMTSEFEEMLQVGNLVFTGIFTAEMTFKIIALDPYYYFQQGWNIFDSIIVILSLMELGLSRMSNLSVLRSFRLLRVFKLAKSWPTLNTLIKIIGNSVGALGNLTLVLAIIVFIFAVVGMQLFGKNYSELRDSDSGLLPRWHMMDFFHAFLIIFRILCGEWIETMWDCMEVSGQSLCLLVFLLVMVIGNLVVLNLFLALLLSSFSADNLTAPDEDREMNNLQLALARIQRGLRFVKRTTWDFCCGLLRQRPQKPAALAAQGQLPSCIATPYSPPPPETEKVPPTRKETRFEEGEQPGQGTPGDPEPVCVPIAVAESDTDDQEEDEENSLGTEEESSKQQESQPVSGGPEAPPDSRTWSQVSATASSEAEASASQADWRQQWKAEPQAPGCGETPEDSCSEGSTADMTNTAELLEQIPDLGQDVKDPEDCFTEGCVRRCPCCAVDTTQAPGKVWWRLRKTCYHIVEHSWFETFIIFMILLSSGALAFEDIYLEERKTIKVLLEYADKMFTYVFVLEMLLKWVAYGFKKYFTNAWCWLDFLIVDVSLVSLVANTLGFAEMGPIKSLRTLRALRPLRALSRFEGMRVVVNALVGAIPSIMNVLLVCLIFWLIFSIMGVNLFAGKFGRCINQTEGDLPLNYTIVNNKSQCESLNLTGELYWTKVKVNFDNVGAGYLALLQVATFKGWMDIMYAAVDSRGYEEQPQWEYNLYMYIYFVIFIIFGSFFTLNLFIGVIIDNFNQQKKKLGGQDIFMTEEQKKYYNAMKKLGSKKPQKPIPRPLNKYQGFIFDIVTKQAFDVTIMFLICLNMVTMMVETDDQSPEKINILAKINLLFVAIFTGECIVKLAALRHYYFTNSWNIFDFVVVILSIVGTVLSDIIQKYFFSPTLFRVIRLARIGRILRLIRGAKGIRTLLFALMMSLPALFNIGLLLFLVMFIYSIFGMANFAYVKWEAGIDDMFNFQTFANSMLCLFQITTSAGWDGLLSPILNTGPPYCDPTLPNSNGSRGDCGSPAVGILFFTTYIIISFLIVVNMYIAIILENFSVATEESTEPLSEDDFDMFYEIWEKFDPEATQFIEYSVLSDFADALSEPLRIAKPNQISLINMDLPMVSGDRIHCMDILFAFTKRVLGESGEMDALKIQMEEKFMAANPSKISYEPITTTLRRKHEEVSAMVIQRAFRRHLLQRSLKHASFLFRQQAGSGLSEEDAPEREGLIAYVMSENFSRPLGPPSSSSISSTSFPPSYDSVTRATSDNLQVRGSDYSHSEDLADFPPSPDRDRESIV

[29] = target: Cytochrome P450 2C9 (Homo sapiens, UniProt P11712); assay: Reversible inhibition of CYP2C9 (unknown origin); type: ADME
Sequence of Cytochrome P450 2C9 (P11712 whole entry): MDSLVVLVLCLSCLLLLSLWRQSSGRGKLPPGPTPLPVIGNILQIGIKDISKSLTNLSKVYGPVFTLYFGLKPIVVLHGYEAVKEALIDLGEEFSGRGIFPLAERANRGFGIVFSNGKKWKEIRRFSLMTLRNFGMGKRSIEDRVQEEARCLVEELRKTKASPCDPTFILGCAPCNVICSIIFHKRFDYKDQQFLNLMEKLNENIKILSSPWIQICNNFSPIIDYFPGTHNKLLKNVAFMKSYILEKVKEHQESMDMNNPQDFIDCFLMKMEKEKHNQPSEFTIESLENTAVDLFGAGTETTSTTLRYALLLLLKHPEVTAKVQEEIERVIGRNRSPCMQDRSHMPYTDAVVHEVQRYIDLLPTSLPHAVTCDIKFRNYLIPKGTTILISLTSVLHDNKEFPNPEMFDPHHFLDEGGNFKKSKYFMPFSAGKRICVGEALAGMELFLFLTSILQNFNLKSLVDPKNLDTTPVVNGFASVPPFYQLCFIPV

[30] = target: T2, Nuclear receptor subfamily 1 group I member 2 (Homo sapiens, UniProt O75469); assay: Inhibition of human PXR
T2 sequence (O75469 whole entry): T1 sequence (O75469 whole entry)

[31] = Plasma protein binding in human assessed as unbound fraction; type: ADME, cell-free
[32] = Plasma protein binding in Wistar Han rat assessed as unbound fraction; type: ADME, cell-free
[33] = Plasma protein binding in C57BL/6 mouse assessed as unbound fraction; type: ADME, cell-free
[34] = Volume of distribution at steady state in mouse at 5 mg/kg, iv; type: ADME, organism-based; details: in vivo, read-out: Vdss
[35] = test system: Escherichia coli; assay: Antibacterial activity against Escherichia coli CLB30005 expressing NDM-1 assessed as growth inhibition in presence of ZnSO4; type: functional, organism-based
[36] = Selectivity ratio of MITC50 for VIM-1 expressing Klebsiella pneumoniae to IC50 for GST-tagged bacterial beta-lactamase VIM-1
[37] = Selectivity ratio of MITC50 for NDM-1 expressing Escherichia coli to IC50 for GST-tagged bacterial beta-lactamase […]
[38] = Selectivity ratio of MITC50 for IMP-1 expressing Serratia marcescens to IC50 for GST-tagged bacterial beta-lactamase IMP-1

NS(=O)(=O)c1cccc(-c2ccc(CO)cc2)c1-c1nn[nH]n1
IC50 [1]: 58 nM | MITC95 [2]: 50 µM | IC50 [3]: 2.4 nM | IC50 [4]: 46 nM

NS(=O)(=O)c1nccc(-c2ccccc2)c1-c1nn[nH]n1
IC50 [1]: 201 nM | MITC95 [5]: <0.195 µM | IC50 [3]: 35 nM | IC50 [4]: 375 nM

NS(=O)(=O)c1cccc(-c2ccccn2)c1-c1nn[nH]n1
IC50 [1]: 90 nM | MITC95 [5]: 0.78 µM | MITC95 [2]: 25 µM | IC50 [3]: 3 nM | IC50 [4]: 330 nM

NS(=O)(=O)c1cncc(-c2ccc(CO)cc2)c1-c1nn[nH]n1
IC50 [1]: 670 nM | MITC95 [5]: 1.56 µM | MITC95 [2]: 100 µM | IC50 [3]: 21 nM | IC50 [4]: 678 nM

c1ccc(-c2ccccc2-c2nn[nH]n2)cc1
IC50 [1]: 22 nM | IC50 [3]: 44 nM | IC50 [4]: 2 nM

NS(=O)(=O)c1cccc(-c2ccnc(CO)c2)c1-c1nn[nH]n1
MITC95 [6]: 50 µM | MITC95 [5]: 0.39 µM

C[C@@H](O)[C@H]1C(=O)N2C(C(=O)O)=C(SCCNC=N)C[C@H]12
Activity [7]: Active | Activity [8]: Active

NS(=O)(=O)c1ccnc(-c2ccc(CO)cc2)c1-c1nn[nH]n1
MITC95 [6]: 37 µM | IC50 [1]: 4130 nM | MITC95 [5]: 2.3 µM | MITC95 [2]: >200 µM | IC50 [3]: 36 nM | IC50 [4]: 767 nM

Nc1cc(-c2nnn[nH]2)c(S(N)(=O)=O)cc1S(N)(=O)=O
IC50 [1]: 7 nM | IC50 [3]: 3.3 nM | IC50 [4]: 17 nM

NS(=O)(=O)c1nccc(-c2ccc(CO)cc2)c1-c1nn[nH]n1
MITC95 [6]: 5.19 µM | IC50 [1]: 269 nM | MITC95 [5]: 0.558 µM | Activity [9]: Active | IC50 [10]: > 30000 nM | MITC95 [2]: 11.76 µM | Activity [11]: inactive | IC50 [3]: 35 nM | IC50 [4]: 369 nM | Activity [12]: Active | Activity [13]: inactive

O=C(O)COc1ccc2c(c1)CCN(C(=O)C(CS)CCc1ccccc1)C2C(=O)O (centres undefined)
IC50 [1]: 2.48 nM | IC50 [3]: 0.243 nM | IC50 [4]: 0.155 nM

NCCNC(=O)C[N+]12CC[N+](Cc3ccc(-c4ccc(C[C@H](C(=O)O)[C@H](Cc5ccccc5)C(=O)O)cc4)cc3)(CC1)CC2
IC50 [1]: 2.8 nM | IC50 [3]: > 200 nM

Cc1ccc(-c2cccc(C(=O)O)c2-c2nnn[nH]2)cc1
IC50 [1]: 6960 nM | IC50 [3]: 3170 nM | IC50 [4]: 2410 nM

NS(=O)(=O)c1nccc(-c2ccc(CO)cc2)c1-c1nnn[nH]1
IC50 shift [14]: 1 | MRT [15]: 312 min | AUC [16]: 27.1 µM·h | Emax at 30 µM [17]: 1.94% | Cmax [18]: 13.4 µM | IC50 [19]: > 30000 nM | clearance [20]: 9.33 mL/min/kg | IC50 [21]: > 30000 nM | Tmax [22]: 30 min | IC50 [23]: > 60000 nM | AUC [24]: 111 µM·h | AUC [25]: 27.4 µM·h | Tmax [26]: 49.8 min | Cmax [27]: 69.1 µM | IC50 [28]: > 30000 nM | IC50 [29]: > 30000 nM | IC50 [30]: > 30000 nM | fraction unbound [31]: 0.23 | fraction unbound [32]: 0.3 | fraction unbound [33]: 0.43 | Vd [34]: 2.97 L/kg

CCCCc1nc2ccc(O)cc2c(=O)n1Cc1ccc(-c2ccccc2-c2nnn[nH]2)cc1
IC50 [1]: 13 nM | IC50 [3]: 52 nM

Cc1ccc(-c2cccc(S(N)(=O)=O)c2-c2nnn[nH]2)cc1
MITC95 [6]: 13.8 µM | IC50 [1]: 57.5 nM and 57 nM | Activity [35]: inactive | MITC95 [5]: 1.48 µM | MITC95 [2]: 127 µM | Selectivity ratio [36]: 2230 | IC50 [3]: 3.9 nM and 3.7 nM | Selectivity ratio [37]: 400 | IC50 [4]: 64 nM | Selectivity ratio [38]: 215

NS(=O)(=O)c1cccc(-c2ccncc2)c1-c1nn[nH]n1
MITC95 [6]: 9.37 µM | IC50 [1]: 285 nM | MITC95 [5]: 0.45 µM | MITC95 [2]: 25 µM | Selectivity ratio [36]: 87 | IC50 [3]: 36 nM | Selectivity ratio [37]: 12 | IC50 [4]: 485 nM | Selectivity ratio [38]: 19

Cc1ccc(-c2cccc(S(=O)(=O)O)c2-c2nnn[nH]2)cc1
IC50 [1]: 8640 nM | IC50 [3]: 4960 nM | IC50 [4]: 2360 nM

CNS(=O)(=O)c1cccc(-c2ccc(C)cc2)c1-c1nnn[nH]1
IC50 [1]: 18000 nM | IC50 [3]: 15800 nM | IC50 [4]: > 20000 nM

NS(=O)(=O)c1cccc(-c2cccnc2)c1-c1nn[nH]n1
MITC95 [6]: 50 µM | IC50 [1]: 269 nM | MITC95 [5]: 0.39 µM | MITC95 [2]: 50 µM | Selectivity ratio [36]: 185 | IC50 [3]: 24 nM | Selectivity ratio [37]: 16 | IC50 [4]: 1780 nM | Selectivity ratio [38]: 28

OCc1ccc(-c2cccc(O)c2-c2nnn[nH]2)cc1
IC50 [1]: 7200 nM | IC50 [3]: 704 nM | IC50 [4]: > 20000 nM

CCCc1c(OCc2cccc(-c3ccccc3-c3nnn[nH]3)c2)ccc(C(C)=O)c1O
IC50 [1]: 23 nM | IC50 [3]: 35 nM | IC50 [4]: 1 nM

CC(CS)C(=O)N1CCc2ccccc2C1C(=O)O (centres undefined)
IC50 [1]: 7.4 nM | IC50 [3]: 3.5 nM | IC50 [4]: 2.7 nM
